We go through 3 compounds from US10669537B2, “Mutagenizing intracellular nucleic acids” (priority 2016, dated 2020).

Where two headings read alike, the source gives them in different places.

Experiment [1] has as its system Saccharomyces cerevisiae BY4741 URA3+. The experiment in a line: 5-FOA resistance frequency after URA3 mutagenesis. It counts as cell-based. The following applies: one cycle of URA3 soft-randomized oligo pool mutagenesis; 5-FOA SD agar plates. An excerpt: To perform mutagenesis without necessitating additional genomic modifications and thus keeping the flexibility of the prokaryotic, pORTMAGE-based approach, the wild-type yeast homologous recombination system was employed to set-up overlapping, soft-randomized oligo pool-mediated mutagenesis. As the target, the endogenous URA3 gene in Saccharomyces cerevisiae BY4741 URA3+(SEQ ID NO:221), encoding orotidine 5-phosphate decarboxylase was chosen. Loss-of-function URA3 mutants can be readily selected based on their 5-Fluoroorotic Acid (5-FOA)-resistant phenotype on 5-FOA containing agar plates (DiCarlo et al. 2013). Therefore, mutagenesis was assayed as the fraction of resistant cells towards 5-FOA in diversified cell populations compared with the frequency of an unmutagenized control. Using 11 overlapping spiked oligo pools (SEQ ID NO:200-SEQ ID NO:210), a single overlapping, soft-randomized oligo pool-mediated mutagenesis cycle was performed.
Specifically, overlapping, soft-randomized oligos for S. cerevisiae URA3 were designed to target the non-coding strand of URA3 (YEL021W, SEQ ID NO:221). Spiked oligonucleotides were synthesized as described in Example 1. Yeast-mutagenesis was performed by delivering oligonucleotides to S. cerevisiae BY4741 URA3+ cells by electroporation. […] As the next step, URA3 mutagenesis was assessed by measuring 5-fluoroorotic acid (5-FOA) resistance frequency. […]

The subject of experiment [2] is E. coli K-12 MG1655. It counts as cell-based, Escherichia coli. The following applies: ciprofloxacin two-fold higher than wild-type MIC, LB agar. The method, then:
All four constituents were mutagenized along the full lengths of their corresponding protein-coding DNA regions in their native genomic context. Accordingly, a single round of rMAGE mutagenesis was performed in E. coli K-12 MG1655, using SEQ ID NO:37-SEQ ID NO:167.
However, ciprofloxacin also has lower binding affinity to the homologous DNA topoisomerase IV complex (Khodursky, Zechiedrich, and Cozzarelli 1995). Therefore, mutagenesis at the target sites was assayed by a ciprofloxacin frequency-of-resistance assay.

The subject of experiment [3] is parental Escherichia coli K-12 MG 1655. The method, then: Subsequently, the genotype of around 1000 resistant mutants was determined by High-Throughput (HT) SMRT sequencing.
Experiment [4] has as its system E. coli K-12 MG1655. The following applies: L28R. The method, then: As a measure of the effect of each individual genotype, relative IC75 values for each of the corresponding mutants were determined and compared to the IC75 of the wild-type.

With `O=C(O)c1[nH]c(=O)[nH]c(=O)c1F` [5-FOA, 5-Fluoroorotic Acid], the “upregulation of the fraction of 5-FOA resistant cells compared to background level” value in experiment [1] turned out to be 77 fold.

`O=C(O)c1cn(C2CC2)c2cc(N3CCNCC3)c(F)cc2c1=O` [ciprofloxacin]: the “frequency of ciprofloxacin resistant variants” value was 10^−4 in the experiment on E. coli K-12 MG1655 [2] (cell population mutagenized at gyrA, gyrB, parC, parE) and 1.83*10^−7 in the experiment with E. coli K-12 MG1655 [2] (non-mutagenised control cell populations).

On to `COc1cc(Cc2cnc(N)nc2N)cc(OC)c1OC` [Trimethoprim, trimethoprim], for which, in experiment [3], the “growth on trimethoprim solid media” value was “cannot grow”. The “Trimethoprim IC75 value” amounted to 1162 mg/L with E. coli K-12 MG1655 [4] (strain E. coli MG1655 1, folA C-58T, A26T, P39R); 1162 mg/L in the experiment on E. coli K-12 MG1655 [4] (strain E. coli MG1655 2, folA C-58T, A26T, P39R); 1346 mg/L with E. coli K-12 MG1655 [4] (strain E. coli MG1655 3, folA C-58T, A26T, P39R); 1254 mg/L in the experiment on E. coli K-12 MG1655 [4] (strain E. coli MG1655 4, folA C-58T, A26T, P39R); 1162 mg/L in the experiment on E. coli K-12 MG1655 [4] (strain E. coli MG1655 5, folA C-58T, A26T, P39R); 1254 mg/L in the experiment on E. coli K-12 MG1655 [4] (strain E. coli MG1655 6, folA C-58T, A26T, P39R). Also, the “Trimethoprim IC75 value” in the experiment on E. coli K-12 MG1655 [4] (strain E. coli MG1655 7, folA C-58T) was determined as 448 mg/L; with E. coli K-12 MG1655 [4] (strain E. coli MG1655 8, folA C-58T, T-74A, N147D) it was 448 mg/L; in the experiment with E. coli K-12 MG1655 [4] (strain E. coli MG1655 9, folA C-58T), 610 mg/L; with E. coli K-12 MG1655 [4] (strain E. coli MG1655 10, folA C-58T), 610 mg/L; with E. coli K-12 MG1655 [4] (strain E. coli MG1655 11, folA C-58T), 518 mg/L; in the experiment on E. coli K-12 MG1655 [4] (strain E. coli MG1655 12, folA C-43T, C-58T, A26D, H45R), 794 mg/L.
